Data published in the supplement of paper PMC10307832.

What was measured:
Experiment in all cases: relative viability (nuclei count vs DMSO), 5 days (fraction); higher = more cells survive
[1] = compound: NS(=O)(=O)OC[C@@H]1C[C@@H](n2ccc3c(N[C@H]4CCc5ccccc54)ncnc32)C[C@@H]1O [MLN4924] + O=C(CCCCCCC(=O)Nc1ccccc1)NO [Vorinostat] (partner 1 µM)
How it was run: (§1)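 Relative viability is defined as nuclei in treated wells over nuclei in vehicle wells. Duplicate plates were run and medians reported. Lung cancer cell lines in 1536-well plates were dosed by pin tool one day after seeding, with one drug or with a fixed anchor-drug dose plus five library-drug doses (not always all listed) in √10 steps, and nuclei were counted after 5 days.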

[2] = compound: CC[C@H](C)N1C=C(C2=C(C=C(C=C21)C3=CN=C(C=C3)N4CCNCC4)C(=O)NCC5=C(C=C(NC5=O)C)C)C [GSK126] + Cc1cc(Nc2cc(N3CCN(C)CC3)nc(Sc3ccc(NC(=O)C4CC4)cc3)n2)n[nH]1 [Tozasertib] (partner 0.1 µM)
How it was run: as §1

[3] = compound: C1CC(C1)(C(=O)O)C(=O)O.[NH2-].[NH2-].[Pt+2] [Carboplatin] + COc1cccc2cc(-c3nc([C@H]4CC[C@H](C(=O)O)CC4)n4ncnc(N)c34)[nH]c12 [OSI-027] (partner 0.5 µM)
How it was run: as §1

[4] = compound: NS(=O)(=O)OC[C@@H]1C[C@@H](n2ccc3c(N[C@H]4CCc5ccccc54)ncnc32)C[C@@H]1O [MLN4924] + C[C@@H](Oc1cc(-c2cnn(C3CCNCC3)c2)cnc1N)c1c(Cl)ccc(F)c1Cl [Crizotinib] (partner 1 µM)
How it was run: as §1

Cell Line	relative viability ([1]; first compound 0.04 µM)	relative viability ([1]; first compound 0.1265 µM)	relative viability ([1]; first compound 0.4 µM)	relative viability ([1]; first compound 1.265 µM)	relative viability ([1]; first compound 4 µM)	relative viability ([2]; first compound 0.08 µM)	relative viability ([2]; first compound 0.253 µM)	relative viability ([2]; first compound 0.8 µM)	relative viability ([2]; first compound 2.53 µM)	relative viability ([2]; first compound 8 µM)	relative viability ([3]; first compound 0.08 µM)	relative viability ([3]; first compound 0.253 µM)	relative viability ([3]; first compound 0.8 µM)	relative viability ([3]; first compound 2.53 µM)	relative viability ([3]; first compound 8 µM)	relative viability ([4]; first compound 0.04 µM)	relative viability ([4]; first compound 0.1265 µM)	relative viability ([4]; first compound 0.4 µM)	relative viability ([4]; first compound 1.265 µM)	relative viability ([4]; first compound 4 µM)
LK-2	0.271	0.277	0.227	0.509	0.198	0.209	0.212	0.175	0.183	0.189	0.262	0.191	0.21	0.184	0.226	0.222	0.319	0.321	0.27	0.236
HCC-827	0.805	0.716	0.636	0.242	0.215	0.428	0.433	0.453	0.387	0.408	0.774	0.851	0.783	0.732	0.655	0.836	0.658	0.61	0.247	0.178
NCI-H322M	1.27	1.47	0.863	0.38	0.475	0.501	0.51	0.49	0.472	0.499	0.544	0.503	0.599	0.506	0.408	0.85	0.779	0.834	0.262	0.399
NCI-H727	1.17	0.847	0.819	0.477	0.451	0.633	0.648	0.586	0.676	0.438	0.732	0.547	0.555	0.617	0.551	0.672	0.274	0.266	0.274	0.222
NCI-H1944	0.543	0.539	0.613	0.203	0.158	0.261	0.24	0.247	0.23	0.28	0.539	0.407	0.41	0.382	0.317	1.06	0.842	0.649	0.179	0.167
BEN	0.434	0.463	0.431	0.268	0.238	0.516	0.388	0.669		0.462	0.295	0.304	0.266	0.287	0.292	0.73	0.38	0.272	0.172	0.17
CAL-12T	0.792	0.921	0.409	0.259	0.144	0.324	0.358	0.301	0.189	0.184	0.696	0.603	0.735	0.779	0.526	0.638	0.665	0.284	0.248	0.134
NCI-H2170	0.774	0.364	0.326	0.135	0.13	0.697	0.661	0.764	0.651	0.661	0.715	0.723	0.86	0.783	0.605	1.2	0.599	0.507	0.16	0.185
